Data reported in patent US20210300940A1 (Merck Patent GmbH, priority 2018, published 2021).
Counter-ions that a name gives are not always drawn.

What was measured:
TLR7 = target: T1, TLR7 (Homo sapiens, UniProt Q9NYK1); assay: HEK/293 TLR7 Cell Assay; assay type: cell-based; conditions: TLR7/NFKb HEK cells, R848 agonist 10 uM final concentration, Steady-Glo readout; read-out: TLR7 potency
T1 construct: expressed in transfected cells; host or cells: HEK/293 cells carrying TLR7 and an NF-kB luciferase reporter
T1 sequence (Q9NYK1 27-1049): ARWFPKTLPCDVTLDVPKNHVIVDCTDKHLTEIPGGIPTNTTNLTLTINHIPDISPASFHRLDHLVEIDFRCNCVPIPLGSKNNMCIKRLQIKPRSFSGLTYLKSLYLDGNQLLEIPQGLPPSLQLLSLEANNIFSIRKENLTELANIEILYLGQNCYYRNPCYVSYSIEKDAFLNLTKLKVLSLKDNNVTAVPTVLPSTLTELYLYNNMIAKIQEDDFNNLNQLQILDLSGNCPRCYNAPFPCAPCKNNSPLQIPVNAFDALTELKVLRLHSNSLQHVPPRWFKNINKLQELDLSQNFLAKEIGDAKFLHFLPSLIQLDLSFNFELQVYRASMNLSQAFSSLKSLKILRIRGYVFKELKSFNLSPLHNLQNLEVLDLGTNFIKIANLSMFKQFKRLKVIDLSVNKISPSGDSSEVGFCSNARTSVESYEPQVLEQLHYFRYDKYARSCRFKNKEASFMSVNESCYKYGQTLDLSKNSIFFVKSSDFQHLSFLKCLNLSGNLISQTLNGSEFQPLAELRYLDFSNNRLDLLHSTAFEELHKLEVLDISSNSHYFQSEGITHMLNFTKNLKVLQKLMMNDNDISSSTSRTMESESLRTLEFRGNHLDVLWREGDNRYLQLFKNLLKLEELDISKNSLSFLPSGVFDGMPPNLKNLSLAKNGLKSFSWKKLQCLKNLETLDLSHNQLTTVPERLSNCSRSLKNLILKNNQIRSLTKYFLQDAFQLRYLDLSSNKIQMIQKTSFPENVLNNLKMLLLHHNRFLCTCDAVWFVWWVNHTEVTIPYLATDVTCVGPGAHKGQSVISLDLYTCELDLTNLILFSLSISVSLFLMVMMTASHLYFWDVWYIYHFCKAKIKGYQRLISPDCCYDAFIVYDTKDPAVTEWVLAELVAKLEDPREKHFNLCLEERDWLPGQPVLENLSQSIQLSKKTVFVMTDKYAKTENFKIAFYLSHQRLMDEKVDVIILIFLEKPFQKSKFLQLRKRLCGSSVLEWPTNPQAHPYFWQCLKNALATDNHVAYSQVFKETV
Procedure, shortened: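 TLR7/NF-κB reporter HEK293 cells, 5000/well, cultured 24 h, then preincubated 30 min with compound before R848 agonist (10 uM final). After 5 h stimulation, Steady-Glo luciferase luminescence read.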

TLR8 = target: T2, TLR8 (Homo sapiens, UniProt Q9NR97); assay: HEK/293 TLR8 Cell Assay; assay type: cell-based; conditions: HEK cells, R848 agonist 30 uM final concentration, Steady-Glo readout; read-out: TLR8 potency
T2 construct: expressed in transfected cells; host or cells: HEK/293 reporter cells (NF-kB luciferase)
T2 sequence (Q9NR97 27-1041): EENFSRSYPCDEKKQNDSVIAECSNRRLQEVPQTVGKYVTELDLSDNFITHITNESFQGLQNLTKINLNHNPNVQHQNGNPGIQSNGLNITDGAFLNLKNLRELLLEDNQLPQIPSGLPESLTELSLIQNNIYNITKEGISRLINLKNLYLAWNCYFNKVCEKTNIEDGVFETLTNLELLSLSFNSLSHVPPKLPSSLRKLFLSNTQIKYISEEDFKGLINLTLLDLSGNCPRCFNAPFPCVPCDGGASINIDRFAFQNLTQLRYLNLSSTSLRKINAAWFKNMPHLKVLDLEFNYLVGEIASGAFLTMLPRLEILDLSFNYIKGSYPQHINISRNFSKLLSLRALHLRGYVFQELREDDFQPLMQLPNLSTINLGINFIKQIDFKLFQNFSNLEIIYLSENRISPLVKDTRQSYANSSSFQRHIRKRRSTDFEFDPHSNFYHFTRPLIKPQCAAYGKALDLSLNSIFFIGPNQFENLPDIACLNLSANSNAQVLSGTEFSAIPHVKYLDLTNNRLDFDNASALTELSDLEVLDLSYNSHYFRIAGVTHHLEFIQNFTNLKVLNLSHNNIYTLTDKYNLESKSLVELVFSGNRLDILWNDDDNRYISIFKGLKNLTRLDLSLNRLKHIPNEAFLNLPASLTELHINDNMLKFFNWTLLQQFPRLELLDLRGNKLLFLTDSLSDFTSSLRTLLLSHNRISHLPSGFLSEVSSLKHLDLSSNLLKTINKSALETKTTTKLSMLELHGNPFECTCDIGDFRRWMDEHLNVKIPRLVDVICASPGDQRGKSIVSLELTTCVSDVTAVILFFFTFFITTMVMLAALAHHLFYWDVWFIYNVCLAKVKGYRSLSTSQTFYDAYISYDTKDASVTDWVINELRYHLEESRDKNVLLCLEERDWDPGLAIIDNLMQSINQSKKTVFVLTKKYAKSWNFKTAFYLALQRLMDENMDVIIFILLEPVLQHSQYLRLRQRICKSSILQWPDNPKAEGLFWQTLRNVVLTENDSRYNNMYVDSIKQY

SMILES	IC50 (TLR7) [nM]	IC50 (TLR8) [nM]
N#Cc1ccc(N2C[C@H](NC(=O)CC3(N)CC3)C[C@H](C(F)(F)F)C2)c2nccnc12 [Example 119, 2-(1-aminocyclopropyl)-N-[(3R,5S)-1-(8-cyanoquinoxalin-5-yl)-5-(trifluoromethyl)piperidin-3-yl]acetamide]	75 to 150	< 75
C[C@@H]1CN(c2ccc(C#N)c3nccnc23)C[C@H](C(=O)NC[C@H]2COCCN2C)O1 (single isomer, unassigned) [Example 263]	< 75	< 75
CN(C)CCNC(=O)N[C@@H]1C[C@H](C(F)(F)F)CN(c2ccc(C#N)c3ncccc23)C1 [Example 143, 1-[(3R,5S)-1-(8-cyanoquinolin-5-yl)-5-(trifluoromethyl)piperidin-3-yl]-3-[2-(dimethylamino)ethyl]urea]	< 75	75 to 150
N#Cc1ccc(N2C[C@H](CN3CC(O)C3)O[C@H](C(F)(F)F)C2)c2nccnc12 (single isomer, unassigned) [Example 361]	< 75	75 to 150
C[C@H]1C[C@@H](n2ccnc2)CN(c2ccc(C#N)c3ncccc23)C1 [Example 158, 5-[(3R,5S)-3-(1H-imidazol-1-yl)-5-methylpiperidin-1-yl]quinoline-8-carbonitrile]	> 150	< 75
C[C@@H]1CN(c2ccc(C#N)c3nccnc23)C[C@H](CN2CCC(C(C)(C)O)C2)O1 (stereo partly drawn) [Example 222, 8-{(2S,6R)-2-[3-(1-Hydroxy-1-methyl-ethyl)-pyrrolidin-1-ylmethyl]-6-methyl-morpholin-4-yl}-quinoxaline-5-carbonitrile]	< 75	75 to 150
CCN(CC)C1CCN(C[C@H]2CN(c3ccc(C#N)c4nccnc34)C[C@@H](C)O2)CC1 [Example 217, 8-[(2S,6R)-2-(4-Diethylamino-piperidin-1-ylmethyl)-6-methyl-morpholin-4-yl]-quinoxaline-5-carbonitrile]	< 75	< 75
CC(=O)NCCSC[C@H]1CN(c2cnc(C#N)c3ncccc23)C[C@@H](C)O1 [Example 374, N-{2-[(2R,6R)-4-(8-Cyano-[1,7]naphthyridin-5-yl)-6-methyl-morpholin-2-ylmethylsulfanyl]-ethyl}-acetamide]	> 150	75 to 150
C[C@@H]1CN(c2ccc(C#N)c3nccnc23)C[C@H](C(=O)N[C@@H]2CCN(CC3CC3)C2)O1 [Example 323, (2R,6R)-4-(8-Cyano-quinoxalin-5-yl)-6-methyl-morpholine-2-carboxylic acid ((R)-cyclopropylmethyl-pyrrolidin-3-yl)-amide]	< 75	< 75
Cc1ccc(N2C[C@@H](C)C[C@@H](NC(=O)[C@@H](N)CC(N)=O)C2)c2cccnc12 [Example 130, (2S)-2-amino-N-[(3R,5S)-5-methyl-1-(8-methylquinolin-5-yl)piperidin-3-yl]butanediamide]	75 to 150	< 75
CCS(=O)(=O)NCCN[C@@H]1C[C@H](C)CN(c2ccc(C(F)(F)F)c3nccnc23)C1 [Example 24]	75 to 150	< 75
C[C@@H]1CN(c2ccc(C#N)c3nccnc23)C[C@H](CSC[C@H](O)CO)O1 (single isomer, unassigned) [Example 229]	75 to 150	< 75
C[C@H]1C[C@@H](NCC2CCS(=O)(=O)C2)CN(c2ccc(C#N)c3nccnc23)C1 (stereo partly drawn) [Example 42, 8-{(3R,5S)-3-[(1,1-Dioxo-tetrahydro-1lambda6-thiophen-3-ylmethyl)-amino]-5-methyl-piperidin-1-yl}-quinoxaline-5-carbonitrile]	75 to 150	75 to 150
C[C@H]1C[C@@H](NCCN2CCNC2=O)CN(c2ccc(C(F)(F)F)c3ncccc23)C1 [Example 27, 1-{2-[(3R,5S)-5-Methyl-1-(8-trifluoromethyl-quinolin-5-yl)-piperidin-3-ylamino]-ethyl}-imidazolidin-2-one]	< 75	< 75
CC(C(=O)N[C@@H]1C[C@H](C(F)(F)F)CN(c2ccc(C#N)c3nccnc23)C1)N1CCN(C)CC1 (single isomer, unassigned) [Example 98]	< 75	< 75
C[C@@H]1CN(c2ccc(C#N)c3nccnc23)C[C@H](C(=O)NC[C@@H](C)O)O1 [Example 238, (2R,6R)-4-(8-Cyano-quinoxalin-5-yl)-6-methyl-morpholine-2-carboxylic acid ((R)-2-hydroxy-propyl)-amide]	< 75	< 75
C[C@@H]1CN(c2cnc(C#N)c3ncccc23)C[C@H](CN2CCNC(=O)C2)O1 [Example 379, 5-[(2R,6S)-2-Methyl-6-(3-oxo-piperazin-1-ylmethyl)-morpholin-4-yl]-naphthyridine-8-carbonitrile]	> 150	> 150
C[C@@H]1CN(c2ccc(C#N)c3nccnc23)C[C@H](CN2CC[C@@H](O)C2)O1 [Example 221, 8-[(2S,6R)-2-((R)-3-Hydroxy-pyrrolidin-1-ylmethyl)-6-methyl-morpholin-4-yl]-quinoxaline-5-carbonitrile]	< 75	> 150
C[C@@H]1CN(c2cnc(C(F)(F)F)c3ncccc23)C[C@H](CN2CCN(C)CC2)O1 [Example 387, 5-[(2R,6S)-2-Methyl-6-(4-methyl-piperazin-1-ylmethyl)-morpholin-4-yl]-8-trifluoromethyl-[1,7]naphthyridine]	75 to 150	75 to 150
C[C@H]1C[C@@H](NCC2CCC(=O)N2)CN(c2ccc(C(F)(F)F)c3nccnc23)C1 (stereo partly drawn) [Example 28, 5-{[(3R,5S)-5-Methyl-1-(8-trifluoromethyl-quinoxalin-5-yl)-piperidin-3-ylamino]-methyl}-pyrrolidin-2-one]	< 75	< 75
C[C@H]1C[C@@H](NCC2COC2)CN(c2ccc(C#N)c3nccnc23)C1 [Example 47, 8-{(3S,5R)-3-Methyl-5-[(oxetan-3-ylmethyl)-amino]-piperidin-1-yl}-quinoxaline-5-carbonitrile]	< 75	< 75
C[C@@H]1CN(c2ccc(C#N)c3nccnc23)C[C@H](C(=O)NC[C@@H]2CN(C)CCO2)O1 (single isomer, unassigned) [Example 325]	< 75	< 75
C[C@@H]1CN(c2ccc(C#N)c3nccnc23)C[C@H](CSC2CNC2)O1 [Example 225, 8-[(2R,6R)-2-(Azetidin-3-ylsulfanylmethyl)-6-methyl-morpholin-4-yl]-quinoxaline-5-carbonitrile hydrochloride]	< 75	< 75
